Read-outs that look alike come from different tables or passages of the source.
Columns and labels:
HBV = assay: anti HBV activity, HepG2.117 cell line, intracellular HBV DNA by real-time PCR; type: cell-based, hepatitis B virus; settings: for EC50: Hepatitis B virus, read-out: HBV-AVE-HepG2.117_intra_EC50; for improved anti-HBV activity, fold improvement over Ref. compound 59: from table 4 EC50 values
Procedure: The anti HBV activity was measured using the HepG2.117 cell line, a stable, inducible HBV producing cell line, which replicates HBV in the absence of doxicycline (Tet-off system). The HepG2 cell line is available from ATCC® under number HB-8065. Transfection of the HepG2 cell line can be as described in Sun and Nassal 2006 Journal of Hepatology 45 (2006) 636-645 “Stable HepG2-and Huh7-based human hepatoma cell lines for efficient regulated expression of infectious hepatitis B virus”.
For the antiviral assay, HBV replication was induced, followed by a treatment with serially diluted compound in 96-well plates. After 3 days of treatment, the antiviral activity was determined by quantification of intracellular HBV DNA using real-time PCR and an HBV specific primer set and probe.

[1] = Cytotoxicity, ATPlite cell viability; type: cell-based; settings: human, mean value, HepG2 or HepG2.117 cells
Procedure: Cytotoxicity of the compounds was tested using HepG2 or HepG2.117 cells, incubated for 4 days in the presence of compounds. The viability of the cells was assessed using the Perkin Elmer ATPlite Luminescence Assay System.”

[2] = 72 h, mean value, HepG2.117 cells, 3 days of treatment, intracellular HBV DNA

Row | Structure (SMILES) | EC50 (HBV; [2]) [µM] | CC50 at 4 days [1] [µM] | EC50 (HBV; HepG2.117, 72 h) [µM] | improved anti-HBV activity, fold improvement over Ref. compound 59 (HBV) [fold]
1 | Cn1cc(C(=O)C(=O)N[C@]2(c3cn[nH]n3)CCC(F)(F)C2)cc1C(=O)Nc1ccc(F)c(C#N)c1 (single isomer, unassigned) [18*R] | 0.015 | 14.1 | – | –
2 | Cn1cc(C(=O)C(=O)N[C@@]2(c3cn[nH]n3)CCC(F)(F)C2)cc1C(=O)Nc1ccc(F)c(C#N)c1 (single isomer, unassigned) [18*S] | 0.064 | 20.7 | – | –
3 | Cn1cc(C(=O)C(=O)N[C@H](CC(F)F)c2cn[nH]n2)cc1C(=O)Nc1ccc(F)c(C#N)c1 (single isomer, unassigned) [24*R] | 0.046 | 9.4 | – | –
4 | Cn1cc(C(=O)C(=O)N[C@@H](CC(F)F)c2cn[nH]n2)cc1C(=O)Nc1ccc(F)c(C#N)c1 (single isomer, unassigned) [24*S] | 0.562 | 28.2 | – | –
5 | Cc1c(C(=O)C(=O)N[C@]2(c3cn[nH]n3)CCC(F)(F)C2)cn(C)c1C(=O)Nc1ccc(F)c(Cl)c1 (single isomer, unassigned) [25*R] | 0.003 | 18.6 | – | –
6 | Cc1c(C(=O)C(=O)N[C@@]2(c3cn[nH]n3)CCC(F)(F)C2)cn(C)c1C(=O)Nc1ccc(F)c(Cl)c1 (single isomer, unassigned) [25*S] | 0.004 | 24.2 | – | –
7 | Cc1c(C(=O)C(=O)N[C@H](CC(F)(F)F)c2cn[nH]n2)cn(C)c1C(=O)Nc1ccc(F)c(Cl)c1 (single isomer, unassigned) [26*R] | 0.007 | > 50 | – | –
8 | Cc1c(C(=O)C(=O)N[C@@H](CC(F)(F)F)c2cn[nH]n2)cn(C)c1C(=O)Nc1ccc(F)c(Cl)c1 (single isomer, unassigned) [26*S] | 0.018 | > 50 | – | –
9 | Cn1cc(C(=O)C(=O)N[C@@]2(c3cn[nH]n3)C[C@@H]2C(F)F)cc1C(=O)Nc1ccc(F)c(C#N)c1 (single isomer, unassigned) [27*R*R] | 0.273 | 24.3 | – | –
10 | Cn1cc(C(=O)C(=O)N[C@]2(c3cn[nH]n3)C[C@H]2C(F)F)cc1C(=O)Nc1ccc(F)c(C#N)c1 (single isomer, unassigned) [27*S*S] | 0.092 | > 50 | – | –
11 | Cc1c(C(=O)C(=O)N[C@H](CC(F)(F)F)c2cn[nH]n2)c(C)n(C)c1C(=O)Nc1ccc(F)c(C#N)c1 (single isomer, unassigned) [44*R] | 0.005 | > 50 | – | –
12 | Cc1c(C(=O)C(=O)N[C@@H](CC(F)(F)F)c2cn[nH]n2)c(C)n(C)c1C(=O)Nc1ccc(F)c(C#N)c1 (single isomer, unassigned) [44*S] | < 0.012 | > 50 | – | –
13 | Cc1c(C(=O)C(=O)N[C@H](CC(F)(F)F)c2cn[nH]n2)cn(C)c1C(=O)Nc1ccc(F)c(C#N)c1 (single isomer, unassigned) [47*R] | 0.021 | > 50 | – | –
14 | Cc1c(C(=O)C(=O)N[C@@H](CC(F)(F)F)c2cn[nH]n2)cn(C)c1C(=O)Nc1ccc(F)c(C#N)c1 (single isomer, unassigned) [47*S] | 0.011 | > 50 | – | –
15 | Cc1c(C(=O)C(=O)N[C@](C)(c2cn[nH]n2)C(F)F)cn(C)c1C(=O)Nc1ccc(F)c(C#N)c1 (single isomer, unassigned) [48*R] | 0.012 | > 50 | – | –
16 | Cc1c(C(=O)C(=O)N[C@@](C)(c2cn[nH]n2)C(F)F)cn(C)c1C(=O)Nc1ccc(F)c(C#N)c1 (single isomer, unassigned) [48*S] | 0.004 | > 50 | – | –
17 | Cc1c(C(=O)C(=O)N[C@H](CC(C)(F)F)c2cn[nH]n2)cn(C)c1C(=O)Nc1ccc(F)c(C#N)c1 (single isomer, unassigned) [49*R] | 0.016 | > 50 | – | –
18 | Cc1c(C(=O)C(=O)N[C@@H](CC(C)(F)F)c2cn[nH]n2)cn(C)c1C(=O)Nc1ccc(F)c(C#N)c1 (single isomer, unassigned) [49*S] | 0.027 | > 50 | – | –
19 | Cn1cc(C(=O)C(=O)N[C@H](c2cnn[nH]2)C(C)(C)C)cc1C(=O)Nc1ccc(F)c(C#N)c1 (stereo in doubt) [Compound 11] | 0.1 | 26 | – | –
20 | Cc1cc(NC(=O)c2cc(C(=O)C(=O)NC(C)c3cn[nH]n3)cn2C)ccc1F (stereo not shown) [Compound 1, N-(4-Fluoro-3-methylphenyl)-1-methyl-4-(oxo{[1-(2H-1,2,3-triazol-4-yl)ethyl]amino}acetyl)-1H-pyrrole-2-carboxamide] | – | > 50 | 0.051 | ~10

Row | Structure (SMILES) | EC50 (HBV; [2]) [µM] | CC50 at 4 days [1] [µM] | EC50 (HBV; HepG2.117, 72 h) [µM] | improved anti-HBV activity, fold improvement over Ref. compound 59 (HBV) [fold]
21 | Cc1cc(NC(=O)c2cc(C(=O)C(=O)NC3(c4cn[nH]n4)CC(F)(F)C3)cn2C)ccc1F [Compound 2, 4-[{[3,3-Difluoro-1-(2H-1,2,3-triazol-4-yl)cyclobutyl]amino}(oxo)acetyl]-N-(4-fluoro-3-methylphenyl)-1-methyl-1H-pyrrole-2-carboxamide] | – | 23.8 | 0.032 | ~18
22 | Cn1cc(C(=O)C(=O)NC2(c3cn[nH]n3)CC(F)(F)C2)c(Cl)c1C(=O)Nc1ccc(F)c(Cl)c1 [Compound 3] | 0.006 | 22 | – | –
23 | Cn1cc(C(=O)C(=O)NC2(c3cn[nH]n3)CC(F)(F)C2)cc1C(=O)Nc1ccc(F)c(C#N)c1 [Compound 4] | 0.063 | 8.2 | – | –
24 | Cn1cc(C(=O)C(=O)NC2(c3cn[nH]n3)CC(F)(F)C2)c(F)c1C(=O)Nc1ccc(F)c(C#N)c1 [Compound 5] | 0.01 | 11.9 | – | –
25 | Cn1cc(C(=O)C(=O)NC2(c3cn[nH]n3)CC(F)(F)C2)cc1C(=O)Nc1ccc(F)c(Cl)c1 [Compound 6] | 0.017 | 7.1 | – | –
26 | Cn1cc(C(=O)C(=O)NC2(c3cn[nH]n3)CC(F)(F)C2)c(F)c1C(=O)Nc1ccc(F)c(Cl)c1 [Compound 7] | 0.011 | 13.5 | – | –
27 | Cn1cc(C(=O)C(=O)NC2(c3cn[nH]n3)CC(F)(F)C2)c(Cl)c1C(=O)Nc1ccc(F)c(C#N)c1 [Compound 8] | 0.006 | > 50 | – | –
28 | Cc1cc(NC(=O)c2cc(C(=O)C(=O)NC(C)(C)c3cn[nH]n3)cn2C)ccc1F [Compound 9] | 0.019 | > 50 | – | –
29 | Cn1cc(C(=O)C(=O)NC2(c3c[nH]nn3)CC2)cc1C(=O)Nc1ccc(F)c(C#N)c1 [Compound 10] | 0.15 | > 50 | – | –
30 | Cn1cc(C(=O)C(=O)NC2(c3cnnn3C)CC(F)(F)C2)c(Cl)c1C(=O)Nc1ccc(F)c(Cl)c1 [Compound 14] | 0.004 | > 50 | – | –
31 | Cn1cc(C2(NC(=O)C(=O)c3cn(C)c(C(=O)Nc4ccc(F)c(Cl)c4)c3Cl)CC(F)(F)C2)nn1 [Compound 15] | 0.004 | > 50 | – | –
32 | Cn1ncc(C2(NC(=O)C(=O)c3cn(C)c(C(=O)Nc4ccc(F)c(Cl)c4)c3Cl)CC(F)(F)C2)n1 [Compound 16] | 0.003 | > 50 | – | –
33 | Cn1cc(C(=O)C(=O)NC2(c3cn[nH]n3)COC2)cc1C(=O)Nc1ccc(F)c(C#N)c1 [Compound 17] | 0.171 | > 50 | – | –
34 | Cn1cc(C(=O)C(=O)NC(CC(F)(F)F)c2cn[nH]n2)cc1C(=O)Nc1ccc(F)c(C#N)c1 (stereo not shown) [Compound 20RS] | 0.061 | 12 | – | –
35 | Cn1cc(C(=O)C(=O)NC2(c3cn[nH]n3)CS(=O)(=O)C2)cc1C(=O)Nc1ccc(F)c(C#N)c1 [Compound 21] | 1.27 | > 50 | – | –
36 | Cc1nc(C2(NC(=O)C(=O)c3cc(C(=O)Nc4ccc(F)c(C#N)c4)n(C)c3)CC(F)(F)C2)n[nH]1 [Compound 22] | 0.124 | 29.5 | – | –
37 | Cc1c(C(=O)C(=O)NC2(c3cn[nH]n3)CC(F)(F)C2)c(Cl)c(C(=O)Nc2ccc(F)c(C#N)c2)n1C [Compound 23] | 0.004 | > 50 | – | –
38 | Cn1cc(C(=O)C(=O)NC(CC(F)F)c2cn[nH]n2)cc1C(=O)Nc1ccc(F)c(C#N)c1 (stereo not shown) [Compound 24RS] | 0.06 | 22.1 | – | –
39 | Cc1c(C(=O)C(=O)NC(CC(F)F)c2cn[nH]n2)c(C)n(C)c1C(=O)Nc1ccc(F)c(C#N)c1 (stereo not shown) [Compound 29] | 0.009 | > 50 | – | –
40 | Cn1cc(C(=O)C(=O)NC2(c3nc[nH]n3)CC(F)(F)C2)cc1C(=O)Nc1ccc(F)c(C#N)c1 [Compound 30] | 0.142 | 31.1 | – | –
